Patent US20210244773A1, “DENTAL PULP STEM CELLS AND USES THEREOF” (priority 2018, published 2021)
“And” between values parts separate entries of the source, which are not always exact repeats. Identical values can stand only once.

Experiments:
Format in all cases: cell-based, human
DPSC = DPSC neuronal differentiation with TNF-alpha, lipoxin A4 or resolvin D1, flow cytometry (Example 3); conditions: for TNF-alpha-induced decrease in β III-tubulin expression: FIG. 6, both 10 and 100 nM, p<0.05; for neuronal differentiation of DPSC without TNF-alpha: added alone at either dose (10 or 100 nM), data not shown
Procedure: DPSC were isolated from the teeth of 7 healthy donors extracted during routine dental care. Samples were selected from our tooth biorepository based on the following donor characteristics: absence of medical comorbidities, no active medication use (aside from vitamin supplements), and absence of periodontal disease or tooth decay. The extracted pulp were plated and then cultured in basal medium, DMEM/F12+15% FBS supplemented with 100 U/mL non-essential amino acids (Gibco Life Technologies), 100 U/mL penicillin and streptomycin, and glutamine (Gibco Life Technologies). Outgrowing fibroblast-like cells appeared after 3-4 days and at that point the pulp was replated. The outgrowing cells were passaged after reaching 80% confluence and passage 4 was used for all experiments. Cells were seeded in duplicate with 2×10^4 cells/well. Neuronal differentiation was induced by replacing DMEM/F12+15% FBS culture media with neuronal differentiation media (NeuroCult NS-A Differentiation Kit-Human, StemCell Technologies Inc., Tukwila, Wash., USA) 48 hours after seeding. Cells were cultured under neuronal induction conditions for up to 21 days with culture media changed twice a week.
Varying concentrations of TNF-alpha (1, 10, 25, and 100 ng/mL, PeproTech, Rocky Hill, N.J., USA), lipoxin A4 (10 and 100 nM, Cayman Chemical, Ann Arbor, Mich., […], Cayman Chemical, Ann Arbor, Mich., USA) were added to the culture of both differentiated and non-differentiated cells starting 48 hours after seeding. In some experiments cells were treated with both TNF-alpha and lipoxin A4 or resolvin D1.
Expression of stem cell and neuronal cell markers was determined by flow cytometry. […] Cells were incubated for 1 hour at room temperature with the following primary antibodies against stem cell markers: rabbit anti-CD44 (Abcam, 1:30) and rabbit anti-OCT4 (Abcam, 1:200) and neuronal markers: rabbit anti-nestin (Abcam, 1:100), rabbit anti-doublecortin (Abcam, 1:50), mouse anti-β III-tubulin (Abcam, 1:100), and rabbit anti-NeuN (Abcam, 1:100). Fluorescence was achieved by incubating with secondary antibodies (Life Tech, Carlsbad, Calif., goat anti-rabbit IgG or goat anti-mouse IgG, dilution 1:500) for 1 hour at room temperature in a dark room. Cells were then subjected to flow cytometry and the percentage of cells expressing each marker was calculated.
Each analysis was performed in duplicate using cells from all donors. Median and interquartile ranges were calculated for each condition. Mann-Whitney tests were used for all statistical analyses; p<0.05 was considered significant.

[1] = test system: DPSC expression of IL-6, IL-8, IL-1β; experiment: Inflammatory cytokine gene expression in DPSC by real-time PCR; conditions: all doses (1, 10, 25, 100 ng/ml), 24 hours
Procedure: Induction of inflammatory cytokine gene expression was determined by real-time PCR to optimize TNF-α treatment conditions. Total RNA was extracted from cells using Trizol (Life Technologies). 10 μL total RNA was reverse transcribed to cDNA using iScript cDNA Synthesis Kit (Bio-Rad, Hercules, Calif., USA). 1 μL cDNA used as template for real-time PCR amplification reactions using the iQ SYBR Green Supermix (Bio-Rad) in combination with […] of each gene-specific primer, according to manufacturer's instructions. Glyceraldehyde 3-phosphate dehydrogenase (GAPDH) was used as endogenous control. PCR reactions were conducted in duplicate using the following conditions: initial denaturation for 3 min at 95° C. followed by 40 cycles of 15 sec denaturation at 95° C. and 60 sec annealing at 60° C. Relative quantification was used for statistical analyses. The following primers were used: […]

dental pulp stem cells = experiment: MTT metabolic activity assay of dental pulp stem cells
Procedure: The metabolic activity of cells was determined by 3-(4,5-dimethylthiazol-2-yl)-2,5-diphenyltetrazolium bromide (MTT) assay at various time points to assess TNF-α toxicity on dental pulp stem cells. Cells were incubated for 4 hours in 5 mg/mL thiazolyl blue tetrazolium bromide (Sigma Aldrich, St. Louis, Mo., USA), the precipitate was suspended with 2-propanol (Sigma Aldrich, St. Louis, Mo., USA), and absorbance was determined in triplicate.

[2] = 25 ng/ml TNF-alpha, 21 days of differentiation, versus absence of TNF-alpha

## CC/C=C\C[C@H](O)/C=C/C=C\C=C\C=C\[C@@H](O)[C@@H](O)C/C=C\CCC(=O)O [resolvin D1]
DPSC; 25 ng/ml TNF-alpha + 100 nM resolvin D1, p=0.02
  increase in β III-tubulin expression versus TNF-alpha alone: 78%
DPSC; 25 ng/ml TNF-alpha + 100 ng/ml resolvin D1
  β III-tubulin expression (percent of cells): 57%
DPSC; 25 ng/ml TNF-alpha + resolvin D1 10 nM, p=0.09
  β III-tubulin expression versus TNF-alpha alone: approached significance
DPSC
  TNF-alpha-induced decrease in β III-tubulin expression: mitigated
  neuronal differentiation of DPSC without TNF-alpha: no reduction or improvement

## CCCCC[C@H](O)/C=C/C=C\C=C\C=C\[C@@H](O)[C@@H](O)CCCC(=O)O [lipoxin A4]
DPSC; 25 ng/ml TNF-alpha + 10 nM lipoxin A4
  β III-tubulin expression (percent of cells): 59%
DPSC; 25 ng/ml TNF-alpha + 10 nM lipoxin A4, p=0.02
  increase in β III-tubulin expression versus TNF-alpha alone: 84%
DPSC; 25 ng/ml TNF-alpha + lipoxin A4 100 nM, p=0.03
  β III-tubulin expression versus TNF-alpha alone: Results were similar
DPSC
  TNF-alpha-induced decrease in β III-tubulin expression: mitigated
  neuronal differentiation of DPSC without TNF-alpha: no reduction or improvement

## TNF-alpha
DPSC; 25 ng/ml TNF-alpha, 21 days of differentiation
  cells expressing the early marker doublecortin: non-significant increase
DPSC; [2]
  expression of early neuronal marker nestin: no difference
  expression of stem cell marker CD44: no difference
  expression of stem cell marker OCT 3/4: no difference
DPSC; 25 ng/ml TNF-alpha, neuronal differentiation, decrease
  decrease in differentiated cells expressing β III-tubulin: 70% and 59%
DPSC; FIG. 6, presence of TNF-alpha
  β-III tubulin expression: significant decrease
DPSC; neural induction with 25 ng/ml TNF-alpha alone
  β III-tubulin expression (percent of cells): 32%
[1]; FIG. 4A
  DPSC expression of IL-6: significant increases
[1]; FIG. 4B
  DPSC expression of IL-8: significant increases
[1]; FIG. 4C
  DPSC expression of IL-1β: significant increases
Dental pulp stem cells; TNF-alpha treatment
  toxicity to DPSC (succinic dehydrogenase metabolic activity): not toxic
Dental pulp stem cells; neural induction with 25 ng/ml or 100 ng/ml TNF-alpha, 10 days, versus absence of TNF-alpha
  metabolic activity (MTT): significantly greater metabolic activity
